{"source": "patent US11607404B2", "about": "“Combinations of RAD51 and PARP inhibitors” (Cyteir Therapeutics, Inc., priority 2019, dated 2023)", "assay_in_all_cases": "Tumor growth inhibition, subcutaneous engrafted tumor model", "type_in_all_cases": "in vivo, mice", "key": {"HBCx1 model": {"tested_on": "HBCx1 model", "settings": "HRD Positive, RAD51 High, BRCA WT, PALB2 WT, 67A 80 mg/kg QD, olaparib 100 mg/kg QD, combo both", "experimental": "(§1) Immunodeficient mice were subcutaneously engrafted in the rear flank with the tumor cells. The tumors were allowed to grow to a size of about 100 to about 200 mm^3 prior to being randomized and grouped into treatment arms. For models […] through […] the four treatment arms were vehicle, Compound 67A at 80 mg/kg QD, olaparib at 100 mg/kg QD, and Compound 67A+Olaparib at 80 mg/kg QD and 100 mg/kg QD, respectively. For models J000101173 through TM00091 the treatment arms were vehicle, Compound 67A at 40 mg/kg QD, olaparib at 50 mg/kg QD, and Compound 67A+Olaparib at 40 mg/kg QD and 50 mg/kg QD, respectively. The tumors were measured either once weekly or twice weekly.\n(§2) Percent Tumor Growth Inhibition (% TGI) was calculated by taking the mean volume of each of the treatment arms, and comparing the treatment arms to the vehicle arms using the following equation"}, "HBCx11 model": {"tested_on": "HBCx11 model", "settings": "HRD Positive, RAD51 High, BRCA1 Mut, PALB2 WT, 67A 80 mg/kg QD, olaparib 100 mg/kg QD, combo both", "experimental": "as §1, §2"}, "HBCx17 model": {"tested_on": "HBCx17 model", "settings": "HRD Positive, RAD51 High, BRCA2 Mut, PALB2 WT, 67A 80 mg/kg QD, olaparib 100 mg/kg QD, combo both", "experimental": "as §1, §2"}, "HBCx27 model": {"tested_on": "HBCx27 model", "settings": "HRD Negative, RAD51 High, BRCA WT, PALB2 WT, 67A 80 mg/kg QD, olaparib 100 mg/kg QD, combo both", "experimental": "as §1, §2"}, "J000100675 model": {"tested_on": "J000100675 model", "settings": "HRD Negative, RAD51 Low, BRCA WT, PALB2 WT, 67A 40 mg/kg QD, olaparib 50 mg/kg QD, combo both", "experimental": "as §1, §2"}, "J000101173 model": {"tested_on": "J000101173 model", "settings": "HRD Positive, RAD51 Low, BRCA WT, PALB2 WT, 67A 40 mg/kg QD, olaparib 50 mg/kg QD, combo both", "experimental": "as §1, §2"}, "TM000113 model": {"tested_on": "TM000113 model", "settings": "HRD Negative, RAD51 Low, BRCA WT, PALB2 WT, 67A 40 mg/kg QD, olaparib 50 mg/kg QD, combo both", "experimental": "as §1, §2"}, "TM00096 model": {"tested_on": "TM00096 model", "settings": "HRD Positive, RAD51 Low, BRCA WT, PALB2 WT, 67A 40 mg/kg QD, olaparib 50 mg/kg QD, combo both", "experimental": "as §1, §2"}, "TM01079 model": {"tested_on": "TM01079 model", "settings": "HRD Positive, RAD51 Low, BRCA1 Meth, PALB2 WT, 67A 40 mg/kg QD, olaparib 50 mg/kg QD, combo both", "experimental": "as §1, §2"}}, "data": [{"smiles": "CC(C)OC(=O)Nc1ccc(-c2cnc([C@H]3CC[C@H](NC(=O)OC(C)C)CC3)s2)c(S(=O)(=O)NC(C)(C)C)c1", "note": "[Compound 67A, trans-isopropylN-[3-(tert-butylsulfamoyl)-4-[2-[4-(isopropoxycarbonylamino)cyclohexyl]thiazol-5-yl]phenyl]carbamate]", "values": [{"measurement": "% TGI", "setting": "HBCx1 model", "result": 28.75, "unit": "%"}, {"measurement": "% TGI", "setting": "HBCx11 model", "result": 23.39, "unit": "%"}, {"measurement": "% TGI", "setting": "HBCx17 model", "result": "−51.13", "unit": "%"}, {"measurement": "% TGI", "setting": "HBCx27 model", "result": 13.14, "unit": "%"}, {"measurement": "% TGI", "setting": "J000100675 model", "result": 36.69, "unit": "%"}, {"measurement": "% TGI", "setting": "J000101173 model", "result": 19.87, "unit": "%"}, {"measurement": "% TGI", "setting": "TM000113 model", "result": 7.24, "unit": "%"}, {"measurement": "% TGI", "setting": "TM00096 model", "result": "−25.4", "unit": "%"}, {"measurement": "% TGI", "setting": "TM01079 model", "result": 26.73, "unit": "%"}]}]}
